The subject of experiment [1] is p53 pathway in SW480 cells (p53 mt). As to the kind of experiment: Activation of the p53 pathway (western blot) in SW480 cells. Format: cell-based. The following applies: SW480 cells containing inactive mutated p53, plasmid transfection. On the procedure:
(§1) Figure 4 Functional analyses of GFP-MIP in living cells. […] (A) Immunoprecipitation assays with anti-GFP were performed followed by western blot with an anti-MDM2 antibody. I, input; F, flow-through; B, beads. (B) The whole cell lysates were analyzed by western blot with antibodies against p53, MDM2, p21 and β-actin. (C) mRNA levels of p53, MDM2, p21 and GAPDH were determined by quantitative reverse transcription-PCR using total RNA extracted from the cells. GAPDH was used for normalization.
(§2) Whole cell lysate was analyzed by western blot analysis with antibodies against p53 (Cell signaling, Beverly, MA, […]), MDM2 (SMP14, Santa Cruz), p21 (SX118, Pharmingen, San Diego, CA, USA) and β-actin (AC-15, Sigma). The blots were developed using an ECL chemiluminescence kit (GE Healthcare, Waukesha, WI, USA).
(A western blot detects proteins with antibodies after separation by electrophoresis.)

A further experiment deals with HCT116-p53+/+ cells. As to the kind of experiment: WST-1 cell viability / cell growth assay in HCT116-p53+/+ cells. In kind it is cell-based. The following applies: plasmid transfection, data not shown.
For experiment [2], the system named is p53 pathway in HCT116-p53+/+ cells. As to the kind of experiment: Activation of the p53 pathway (western blot, quantitative RT-PCR) in HCT116-p53+/+ cells. The conditions noted are these: plasmid transfection. In kind it is cell-based, human. The procedure: as §1
Figure 5 Activation of the p53 pathway by inhibiting the MDM2-p53 interaction. […] After 48 h, immunoprecipitation assay with anti-FLAG antibody was performed followed by western blot with anti-MDM2 or anti-FLAG antibody. […] After 24 h, the whole cell lysates were analyzed by western blot with antibodies against p53, p21 and β-actin. […] After 24 h, mRNA levels of p53, MDM2, p21 and GAPDH were determined by quantitative reverse transcription-PCR using total RNA extracted from the cells. GAPDH was used for normalization.
as §2
Total RNA was extracted with the RNeasy mini kit from cells. The RNA was used as template for the real-time RT-PCR reaction with the QuantiTect SYBR Green RT-PCR kit (Qiagen) using the p53F and p53R primer set, the mdm2F and mdm2R primer set or the p21F and p21R primer set. The GAPDH gene was used for normalization with the Light cycler primer sets (Roche, Basel, Switzerland).

A further experiment addresses T1, MDM2-p53 interaction (Homo sapiens, UniProt Q00987).
T1 construct: In vitro-translated MDM2 (7–300 amino acids) mixed with the synthetic peptides; made in house; host or cells: MDM2: in vitro translated (wheat germ cell-free system for the bait preparation); p53: E. coli BL21 (DE3) codon+
As to the kind of experiment: ELISA of MDM2 (7-300) bound to immobilized His6-p53 in the presence of synthetic peptides. Format: binding. The procedure:
(§3) The resulting plasmid was transformed into the E. coli strain BL21 (DE3) codon+. The cells were grown in LB with 50 µg/ml carbenicillin at 37°C to an optical density (OD600) of 0.5 and induced with 1 mM IPTG for 6 h. […] After washing with PBST, the plates were blocked with 5% skim milk at 4°C for 30 min. […] The RNA was purified with the RNeasy mini kit and in vitro-translated in a wheat germ cell-free translation system to produce MDMX protein.
(An ELISA detects its analyte on a solid surface through an enzyme-linked reagent.)

The target of a further experiment is T2, MDMX-p53 interaction (Homo sapiens, UniProt O15151).
T2 construct: the cDNA of MDMX (1–200 amino acids) was amplified by PCR; made in house; host or cells: MDMX: wheat germ cell-free translation system; p53: E. coli BL21 (DE3) codon+
T2 sequence (O15151 1-200): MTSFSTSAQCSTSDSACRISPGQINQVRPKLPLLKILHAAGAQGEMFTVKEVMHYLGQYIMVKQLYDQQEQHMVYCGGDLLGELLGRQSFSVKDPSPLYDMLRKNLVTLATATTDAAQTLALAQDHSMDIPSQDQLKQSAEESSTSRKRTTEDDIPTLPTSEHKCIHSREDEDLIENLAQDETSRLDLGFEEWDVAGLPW
As to the kind of experiment: ELISA of MDMX (1-200) bound to immobilized His6-p53 in the presence of synthetic peptides. In kind it is binding. The procedure:
as §3

Experiment [3] concerns the target T3, MDM2_(7–300) fused to the TAP tag (human (A549 cell-derived cDNA library), UniProt Q00987 7-300).
T3 construct: MDM2, residues 7-300, cDNA amplified from an A549 cell-derived cDNA library; primers and plasmid are named MDM(1–294) / pCMV-MDM294-CBPzz; The ELISA methods name only 'in vitro-translated MDM2 (7–300 amino acids)'; also called TAP-tagged MDM2; MDM2 (7–300 amino acids); source: in vitro translated (wheat germ cell-free translation system); immobilised on IgG beads for the pull-down
As to the kind of experiment: ELISA; competition: synthetic peptide at various concentrations mixed with in vitro-translated MDM2 (7–300) or MDMX (1–200) in binding buffer (5% skim milk, 10% glycerol), added to His6-p53 immobilized on copper-coated plates, 1 h at room temperature; detection with anti-MDM2 (SMP14) or anti-FLAG M2. The following applies: one partner purified.

The target of another experiment is T4, MDMX (1–200 amino acids) (human, UniProt O15151 1-200).
T4 construct: MDMX, residues 1-200, cDNA amplified from a Human Mosaic cDNA template; also called MDMX(1–200)-FLAG; source: in vitro translated (wheat germ cell-free translation system)
T4 sequence (looked up): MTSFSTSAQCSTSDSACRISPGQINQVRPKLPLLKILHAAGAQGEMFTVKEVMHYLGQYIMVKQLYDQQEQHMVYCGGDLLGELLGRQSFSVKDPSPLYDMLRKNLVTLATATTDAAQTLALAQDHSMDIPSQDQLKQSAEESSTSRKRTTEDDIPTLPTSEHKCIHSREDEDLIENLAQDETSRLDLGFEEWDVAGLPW
Described as above. The following applies: one partner purified.

Ends that are not written are not given here.

For orientation: IC50 means the midpoint of a concentration-inhibition curve.

T3 sequence (Q00987 7-300): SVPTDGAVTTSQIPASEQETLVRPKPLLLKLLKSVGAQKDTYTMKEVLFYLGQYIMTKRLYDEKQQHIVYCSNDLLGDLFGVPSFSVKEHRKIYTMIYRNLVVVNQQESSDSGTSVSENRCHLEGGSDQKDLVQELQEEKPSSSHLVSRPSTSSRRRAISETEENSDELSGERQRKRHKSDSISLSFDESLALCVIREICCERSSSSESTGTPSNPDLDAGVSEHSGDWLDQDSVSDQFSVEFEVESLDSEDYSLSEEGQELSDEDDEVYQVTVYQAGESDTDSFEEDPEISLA

Regarding “GFP-MIP: GFP-fused MIP (PRFWEYWLRLME; also: GFP-fused, end not given here)”, in experiment [1], the “p53 and its targets (MDM2 and p21) at the protein level” value was “not”. The “proliferation of cells expressing the GFP-fused peptide” value in the experiment on HCT116-p53+/+ cells was “not inhibited”. For the same molecule, in experiment [2] (quantitative RT-PCR), the “MDM2 and p21 at the mRNA level” value was “increased”; the “p53 mRNA level” value is given as “no effect”. Besides, the “p53 and its targets (MDM2 and p21) at the protein level” value in experiment [2] (western blot) is on record as “increase”.
Take PRFWEYALRLME [MIP (W7A)]: the IC50 on MDM2-p53 interaction is more than 100 µM.
With LTAEHYAAQATS [3A, reference compound], the IC50 at MDM2-p53 interaction and at MDMX-p53 interaction was more than 100 µM in each case.
Consider PRFWEAWLRLME [MIP (Y6A)], for which the concentration for half-maximal inhibition (IC50) at MDM2-p53 interaction was more than 100 µM.

B1: MIP (F3A), synthetic peptide (peptide)
peptide: PRAWEYWLRLME
notes: MIP with Phe3 replaced by Ala; source: synthetic peptide
In experiment [3], B1 showed an IC50 of 570 nM.

B2: MIP (M11A), synthetic peptide (peptide)
peptide: PRFWEYWLRLAE
notes: MIP with Met11 replaced by Ala; source: synthetic peptide
On to B2, for which the 50% inhibitory concentration (IC50) in experiment [3] amounted to 400 nM.

B3: MIP (R9A), synthetic peptide (peptide)
peptide: PRFWEYWLALME
notes: MIP with Arg9 replaced by Ala; source: synthetic peptide
B3 registered an IC50 in experiment [3] of 20 nM.

B4: MIP (L10A), synthetic peptide (peptide)
peptide: PRFWEYWLRAME
notes: MIP with Leu10 replaced by Ala; source: synthetic peptide
Molecule B4 displayed an IC50 in experiment [3] of 1140 nM.

B5: MIP (MDM2 Inhibitory Peptide), synthetic peptide (peptide)
peptide: PRFWEYWLRLME
notes: 12-mer selected by mRNA display from a partially randomized library; also called X12-1; source: synthetic peptide
In the case of B5, the IC50 is 10 nM in experiment [3] and 120 nM with MDMX (1–200 amino acids).

For the origin of these results see paper PMC3057987 (PLoS ONE, 2011).
